Test results taken from US10570174B2, “Peptides for the treatment of malignant proliferative diseases” (Yissum Research Development Company of the Hebrew …, priority 2015, dated 2020).

How the values were obtained:
[1] = test system: 4T1 mammary carcinoma cells; assay: Lung metastasis in mice inoculated with 4T1 cells, YHI1 and derivatives vs control compounds (Example 6); format: in vivo, BALB/c mice; details: i.p., doses molar equivalent to 30 ng/kg YHI1, day 5 to day 16, 6 days a week
Procedure: YHI1 and its derivatives YHI2 and YHI4 were tested in comparison to a scrambled sequence (designated ‘YHI3’), IIIM1 and Arg-Pbf. All peptides were synthesized to over 98% purity.
Female BALB/c mice (9-10 weeks old) were iv injected with 4T1 cells (1×10^4 cells in 0.2 ml culture medium; medium was replaced with fresh medium one day prior to the injection). The tested compounds were ip administered on day 5 after tumor cell inoculation and continued daily thereafter 6 days a week until day 16, on which day the mice were sacrificed (in YHI3 group one animal died 14 days after cell injection before end of study). Each mouse received 10 injections during 11 consecutive days. A control group of mice received the same volume of saline (vehicle) injections. Each group contained 8 mice (n=8). Additional 4 mice remained naïve (without tumor cell injection and without any treatment), designated here as ‘pure control’. At the end of the experiments the mice were sacrificed and their lungs were removed, weighed and quantified for number of foci.

[2] = test system: 4T1 mammary carcinoma cells; assay: Lung metastasis in mice inoculated with 4T1 mammary carcinoma cells (Example 4); format: in vivo, BALB/c mice; parameters: Score (histological score of lung, per specimen): scale not given here
Procedure: Female BALB/c mice (9-10 weeks) were i.v. injected with mammary 4T1 tumor cells (1×10^4 cells in 0.2 ml culture medium). YHI1 was i.p. administered to the mice at doses of 3, 10 and 30 ng/kg body weight (0.1 ml) on day 5 after tumor cell inoculation and thereafter 6 days a week, until day 21, on which day the mice were sacrificed. Control mice received saline (vehicle) injections. Additional 3 mice remained naïve (“pure control”, no cell injection, no treatment). Each dose group contained 10 mice. At the end of the experiments the mice were sacrificed, the lungs of the mice were removed, weighed and quantified for the number of foci.

[3] = test system: D122 cells (3LL Lewis lung carcinoma); assay: Tumor growth in footpads of mice injected with D122 lung tumor cells, i.p. YHI1; format: in vivo, C57BL/6 mice
Procedure: (§1) YHI1 was synthesized by solid phase synthesis to over 95% purity. To assess the effect of YHI1 on local tumor growth, lung cancer cells were injected into footpads of mice to induce the formation of a topical tumor, and the tumor size was measured in mice treated with several dosages of YHI1 or with vehicle only. Two separate experiments were carried out using this model, one in which YHI1 and vehicle were administered orally and another in which YHI1 and vehicle were administered via intraperitoneal (i.p.) injection.
Female C57BL/6 mice were injected in the footpads with D122 cells (2×10^5 cells per mouse suspended in 50 μl PBS). YHI1 was i.p. administered at the indicated doses 8, 6, 4 or 1 day prior to cell injection and thereafter up to 34 days, 3 times a week. Control mice received the vehicle (saline). Tumor size (diameter) was measured by a caliper. Baseline value (before cell injection) was subtracted from each measurement. Groups: control (n=10), and YHI1—0.1 μg/kg (n=10), 1 μg/kg (n=10), 10 μg/kg (n=11), 100 μg/kg (n=9).
The results are expressed as mean±SE using the Kruskal-Wallis test and Dunnett's multiple comparison post test for statistical evaluation of the differences between the treated groups and control group at each time point.

[4] = test system: D122 cells (3LL Lewis lung carcinoma); assay: Tumor growth in footpads of mice injected with D122 lung tumor cells, oral YHI1; format: in vivo, C57BL/6 mice
Procedure: as §1
Female C57BL/6 mice were injected in the footpads with D122 cells (2×10^5 cells per mouse suspended in 50 μl PBS), a highly metastatic 3LL Lewis lung carcinoma. YHI1 (dissolved in saline) was orally administered at the indicated doses 8, 6, 4 and 1 day prior to cell injection and thereafter during 35 days, 3 times a week. Control mice received the vehicle (saline). Tumor size (diameter) was measured by a caliper. Baseline value (before cell injection) was subtracted from each measurement. Groups: control (n=10), and YHI1—0.1 mg/kg (n=9), 1 mg/kg (n=10), 5 mg/kg (n=8).
The results are expressed as mean±SE. p<0.05 for 5 mg/kg group versus control, for the period of 23-35 days (Mann-Whitney test).

B16-F10 cells = assay: Tumorigenicity of B16-F10 melanoma cells injected subcutaneously; format: in vivo, C57BL/6 mice; details: 17 days after cell injection
Procedure: To examine the effect of YHI1 on melanoma tumor cells, female C57BL/6 mice (6-7 weeks) were subcutaneously injected in the lateral thoracic-abdominal area with B16-F10 cells (2×10^5 cells in 0.1 ml culture medium). YHI1 was i.p. administered at doses of 30 and 100 ng/kg body weight (0.1 ml) on day 3 after tumor cell inoculation and thereafter until day 20 of tumor cell inoculation, 6 times a week. Control mice received saline (vehicle) injections. Each dose group contained 10 mice. Tumor size was measured along the experiment and was expressed as multiplication of length and width of the tumor.

D122 cells [5] = assay: Lung metastasis in mice i.v. injected with D122 cells, treatment started 7 days after cell injection; format: in vivo, C57BL/6 mice; details: i.p. 0.01 μg/kg from 7 days after cell injection
Procedure: To assess whether time of treatment affects the metastasis process, YHI1 was administered 7 days after tumor cell injection. Female C57BL/6 mice were i.v. injected with D122 cells (5×10^5 cells per mouse suspended in 100 μl PBS). YHI1 was i.p. administered at a dose of 0.01 μg/kg body weight (volume of 0.1 ml) 7 days after cell injection and thereafter up to 35 days, 3 times a week. Control mice received the vehicle (saline). Lung weight, number of tumors, lung histology (H&E) and survival were determined on day 35 after cell inoculation for each animal Lung weight was compared to a healthy lung removed from a naïve animal.

D122 cells [6] = assay: Lung metastasis in mice i.v. injected with D122 cells, treatment started before cell injection; format: in vivo, C57BL/6 mice; details: for reduction in Δ lung weight compared to control: day 35
Procedure: To examine the effect of YHI1 on cancer cell metastasis, lung metastasis was induced in mice, and the lung weight and the number of large metastases in mice treated with YHI1 or with vehicle only were measured.
Female C57BL/6 mice were i.v. injected with D122 cells (5×10^5 cells per mouse suspended in 100 μl PBS). YHI1 was i.p. administered at doses of 0.1 μg/kg body weight and 0.01 μg/kg body weight 8, 6, 4 and 1 day prior to cell injection and thereafter up to 35 days, 3 times a week. Control mice received the vehicle (saline).
Lung weight was determined on day 35 for each animal. Mean weight of lungs of healthy-non injected mice was subtracted from each value of the experimental and control groups, and the results are expressed as A lung weight. n=11, 10 and 9 mice for control, YHI1 0.1 and 0.01 μg/kg groups, respectively. Results are expressed as mean±SE using the Kruskal-Wallis test and Dunnett's multiple comparison post test for statistical evaluation of the differences in lung weight between the experimental groups and control mice. *p<0.05 for both 0.1 μg/kg and 0.01 μg/kg groups.
The number of large visible metastases in the lungs was next quantified. […] The results are expressed as mean±SE. *p<0.05 Mann Whitney test.
The lungs were then fixed, sectioned and stained with H&E for histopathological evaluation.

Question: With “H-Lys-Gly-His-Tyr-Ala-Glu-Arg(NO2)-Val-Gly-OH (KGHYAEXVG; HELM PEPTIDE1{K.G.H.Y.A.E.[N=C(NCCC[C@H](N[*:1])C(=O)[*:2])N[N+](=O)[O-]].V.G}$$$$V2.0; SMILES CC(C)[C@H](NC(=O)[C@H](CCCNC(=N)N[N+](=O)[O-])NC(=O)[C@H](CCC(=O)O)NC(=O)[C@H](C)NC(=O)[C@H](Cc1ccc(O)cc1)NC(=O)[C@H](Cc1c[nH]cn1)NC(=O)CNC(=O)[C@@H](N)CCCCN)C(=O)NCC(=O)O) [YHI4, KGHYAER(NO2)VG, derivative of YHI1]” as the substance, how does the “lung weight compared to saline control” value [1] read?
Answer: significant reduction

Question: And the “number of tumors per lung compared to saline control” value [1]?
Answer: reduction was not statistically significant

Question: What does the source list for “H-Lys-Gly-His-Tyr-Ala-Glu-Arg(Pbf)-Val-Gly-OH (KGHYAEXVG; HELM PEPTIDE1{K.G.H.Y.A.E.[Cc1c(C)c(S(=O)(=O)NC(=N)NCCC[C@H](N[*:1])C(=O)[*:2])c(C)c2c1OC(C)(C)C2].V.G}$$$$V2.0; SMILES Cc1c(C)c(S(=O)(=O)NC(=N)NCCC[C@H](NC(=O)[C@H](CCC(=O)O)NC(=O)[C@H](C)NC(=O)[C@H](Cc2ccc(O)cc2)NC(=O)[C@H](Cc2c[nH]cn2)NC(=O)CNC(=O)[C@@H](N)CCCCN)C(=O)N[C@H](C(=O)NCC(=O)O)C(C)C)c(C)c2c1OC(C)(C)C2) [YHI1]”?
Answer: Description (blindly evaluated) of lung histology, per specimen ([2]; 30 ng/kg, individual specimens i-X): No metastases observed.; Score (histological score of lung, per specimen) ([2]; 30 ng/kg, individual specimens i-X, blindly evaluated): 0; effect on foci number ([2]; i.p. 3 ng/kg): no effect; effect on lung weight ([2]; i.p. 3 ng/kg, day 5 to day 21, 6 days a week): no effect; reduction of number of lung foci vs control ([2]; i.p. 10 ng/kg): 94%; reduction of lung weight vs control ([2]; i.p. 10 ng/kg, day 5 to day 21, 6 days a week): 65%; reduction of number of lung foci vs control ([2]; i.p. 30 ng/kg): 100%; histological score of lung metastasis (group) ([2]; i.p. 30 ng/kg vs control): significantly reduced; reduction of lung weight vs control ([2]; i.p. 30 ng/kg, day 5 to day 21, 6 days a week): 78%; histological lung section ([2]; i.p. 30 ng/kg, representative section): normal lung tissue with no evidence of metastases; reduction of tumor size, comparison between doses ([3]; 0.1 μg/kg vs higher doses up to 100 μg/kg): more effective in reducing tumor size than higher doses; rate of tumor growth (tumor size, diameter) ([3]; 0.1-100 μg/kg, 8, 6, 4, 1 day prior to cell injection and 3 times a week up to 34 days): reduced the rate of tumor growth; reduction of tumor size, comparison between doses ([4]; oral, 5 mg/kg vs 1 mg/kg and 0.1 mg/kg): more effective in reducing tumor size than the lower doses; rate of tumor growth (tumor size, diameter) ([4]; oral, 0.1, 1, 5 mg/kg, 8, 6, 4, 1 day prior to cell injection and 3 times a week during 35 days): reduced the rate of tumor growth; effect on local tumor growth (B16-F10 cells; i.p. 30 ng/kg compared with 100 ng/kg): slightly weaker effect; reduction of local tumor growth (tumor size, length x width) (B16-F10 cells; i.p. 100 ng/kg): 55%; lung weight compared to saline control [1]: significant reduction; number of tumors per lung compared to saline control [1]: significant reduction; histological lung sections (H&E) (D122 cells [5]): only a single focus of viable tumor; histological score of lung metastasis (D122 cells [5]): significantly reduced; lung weight lower than control (D122 cells [5]; day 35): 63%; number of large and medium sized metastases in the lungs (D122 cells [5]; day 35): significantly reduced; survival (D122 cells [5]; control 80% survival): full animal survival; number of large visible metastases in the lungs (D122 cells [6]; i.p. 0.01 μg/kg): totally eliminated visible metastases; reduction in Δ lung weight compared to control (D122 cells [6]; i.p. 0.01 μg/kg): 87%; lung histopathology (H&E) (D122 cells [6]; i.p. 0.01 μg/kg, representative section): tumor free; reduction of number of large metastases compared to control (D122 cells [6]; i.p. 0.1 μg/kg): 58%; reduction in Δ lung weight compared to control (D122 cells [6]; i.p. 0.1 μg/kg): 78%

Question: How did the “lung weight compared to saline control” value [1] turn out when “H-Lys-Gly-His-Tyr-Arg(Pbf)-Ala-Glu-Val-Gly-OH (KGHYXAEVG; HELM PEPTIDE1{K.G.H.Y.[Cc1c(C)c(S(=O)(=O)NC(=N)NCCC[C@H](N[*:1])C(=O)[*:2])c(C)c2c1OC(C)(C)C2].A.E.V.G}$$$$V2.0; SMILES Cc1c(C)c(S(=O)(=O)NC(=N)NCCC[C@H](NC(=O)[C@H](Cc2ccc(O)cc2)NC(=O)[C@H](Cc2c[nH]cn2)NC(=O)CNC(=O)[C@@H](N)CCCCN)C(=O)N[C@@H](C)C(=O)N[C@@H](CCC(=O)O)C(=O)N[C@H](C(=O)NCC(=O)O)C(C)C)c(C)c2c1OC(C)(C)C2) [YHI2, KGHYR(Pbf)AEVG, derivative of YHI1]” was run?
Answer: significant reduction

Question: What about the “number of tumors per lung compared to saline control” value [1] of the same substance?
Answer: significant reduction
